T1: PfDTD (D-aminoacyl-tRNA deacylase from Plasmodium falciparum) (Plasmodium falciparum, UniProt Q8IIS0)
T1 construct: gene DTD; recombinant; C-terminal His-tagged U-15N protein for NMR; dimer with cross-subunit Gly-cisPro motif in the active site
T1 sequence (Q8IIS0 1-164): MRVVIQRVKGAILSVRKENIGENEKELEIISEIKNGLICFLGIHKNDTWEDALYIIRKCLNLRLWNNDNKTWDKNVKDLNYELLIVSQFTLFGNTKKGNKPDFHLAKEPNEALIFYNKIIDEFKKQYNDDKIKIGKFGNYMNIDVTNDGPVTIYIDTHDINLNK


Experiments:
[1] = target: T1, PfDTD (D-aminoacyl-tRNA deacylase from Plasmodium falciparum); test: 2D […]-1H TROSY NMR titration (chemical shift perturbation); assay type: binding; settings: substrate analog; 50 mM HEPES pH 7.0, 50 mM NaCl; 0.2 mM protein, up to 3 mM ligand
[2] = target: the molecule itself; test: crystal structure; co-crystal of PfDTD with Gly3AA (molar ratio 1:20), P2(1), eight monomers in the asymmetric unit; 0.1 M HEPES pH 7.5, 0.4 M NaCl, 28% PEG3350

| Molecule | 2D 15N-1H TROSY NMR titration (chemical shift perturbation) [1] | binding result [2] |
| --- | --- | --- |
| C[C@@H](N)C(=O)N[C@H]1[C@@H](O)[C@H](n2cnc3c(N)ncnc32)O[C@@H]1CO [D-Ala3AA, D-alanyl-3′-aminoadenosine] | the data indicated binding of D-Ala3AA but not of L-Ala3AA |  |
| D-aminoacyl-tRNA deacylase from Plasmodium falciparum (enzyme, D-aminoacyl-tRNA deacylase (DTD), Plasmodium falciparum, UniProt Q8IIS0; no tag is stated for the crystallised protein; The crystal also holds the small-molecule ligand Gly3AA; also called PfDTD; DTD; source: cloned, expressed, and purified as described in [15]) MRVVIQRVKGAILSVRKENIGENEKELEIISEIKNGLICFLGIHKNDTWEDALYIIRKCLNLRLWNNDNKTWDKNVKDLNYELLIVSQFTLFGNTKKGNKPDFHLAKEPNEALIFYNKIIDEFKKQYNDDKIKIGKFGNYMNIDVTNDGPVTIYIDTHDINLNK |  | binds |

Reference: publication PMC4880308, “Elongation Factor Tu Prevents Misediting of Gly-tRNA(Gly) Caused by the Design Behind the Chiral Proofreading Site of D-Aminoacyl-tRNA Deacylase” (PLoS Biology, 2016)
